Source: ChEMBL document CHEMBL5500396, “Discovery, Multiparametric Optimization, and Solid-State Driven Identification of CHF-6550, a Novel Soft Dual Pharmacology Muscarinic Antagonist and β2 Agonist (MABA) for the Inhaled Treatment of Respiratory Diseases” (J Med Chem, 2024)

System: Cavia porcellus
Test: Inhibition of histamine induced bronchoconstriction in male albino Dunkin-Hartley guinea pig model at 0.3 nmol/kg, IT(Intratracheal) preadministered with compound followed by histamine addition at 5 to 30 mins and measured 1 hrs post compound treatment relative to control
Settings: read-out: INH
In the case of `CCN1CCC(COC(=O)[C@](O)(c2ccccc2)c2cccc(OCCCNC(=O)c3cc(OC)c(CNC[C@H](O)c4ccc(O)c5[nH]c(=O)ccc45)cc3F)c2)CC1.O=C(O)C(F)(F)F.O=C(O)C(F)(F)F`, the inhibition in vivo at 0.0003 µmol/kg is reported as 85%.

System: Cavia porcellus
Test: Inhibition of acetylcholine induced bronchoconstriction in male albino Dunkin-Hartley guinea pig model at 1 nmol/kg, IT(Intratracheal) preadministered with compound followed by acetylcholine addition at 5 to 30 mins and measured 1 hrs post compound treatment relative to control
Settings: read-out: INH
With `Cn1nc(C(=O)OCCCCNC[C@H](O)c2ccc(O)c3[nH]c(=O)ccc23)cc1COc1cccc([C@@H](NC(=O)O[C@H]2CN3CCC2CC3)c2ccccc2)c1` the inhibition in vivo at 0.001 µmol/kg was 93%.

Molecular target: Muscarinic acetylcholine receptor M3 (Homo sapiens, UniProt P20309)
Sequence (P20309 whole entry): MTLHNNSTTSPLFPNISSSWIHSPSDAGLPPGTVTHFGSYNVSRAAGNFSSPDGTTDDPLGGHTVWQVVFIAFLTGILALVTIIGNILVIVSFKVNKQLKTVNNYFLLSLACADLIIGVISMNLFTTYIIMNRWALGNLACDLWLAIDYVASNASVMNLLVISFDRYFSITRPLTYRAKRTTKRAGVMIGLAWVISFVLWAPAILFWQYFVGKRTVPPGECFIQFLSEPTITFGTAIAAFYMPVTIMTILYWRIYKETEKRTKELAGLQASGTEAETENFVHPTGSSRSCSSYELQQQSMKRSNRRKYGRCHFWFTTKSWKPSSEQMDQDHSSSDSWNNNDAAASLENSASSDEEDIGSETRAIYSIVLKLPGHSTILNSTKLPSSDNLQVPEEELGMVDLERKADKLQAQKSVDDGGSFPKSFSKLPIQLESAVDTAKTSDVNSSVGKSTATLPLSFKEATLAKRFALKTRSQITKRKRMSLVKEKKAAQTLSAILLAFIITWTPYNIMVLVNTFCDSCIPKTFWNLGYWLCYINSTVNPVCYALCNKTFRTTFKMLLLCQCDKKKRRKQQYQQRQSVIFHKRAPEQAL
Test: not given
Settings: not given
For `CCN1CCC(COC(=O)[C@](O)(c2ccccc2)c2cccc(OCCCNC(=O)c3cc(OC)c(CNC[C@H](O)c4ccc(O)c5[nH]c(=O)ccc45)cc3F)c2)CC1.O=C(O)C(F)(F)F.O=C(O)C(F)(F)F`, the Ki was 12.6 pM.

System: Cavia porcellus
Test: Inhibition of acetylcholine induced bronchoconstriction in male albino Dunkin-Hartley guinea pig model at 1 nmol/kg, IT(Intratracheal) preadministered with compound followed by acetylcholine addition at 5 to 30 mins and measured 24 hrs post compound treatment relative to control
Settings: read-out: INH
With `Cn1nc(C(=O)OCCCCNC[C@H](O)c2ccc(O)c3[nH]c(=O)ccc23)cc1COc1cccc([C@@H](NC(=O)O[C@H]2CN3CCC2CC3)c2ccccc2)c1` the inhibition in vivo at 0.001 µmol/kg was 71%.

System: not listed separately
Test: in vitro
Settings: guinea pig, lung S9 fraction
Description: Stability in guinea pig lung S9 fraction assessed as half-life at 1 uM incubated for 60 mins by LC-MS/MS analysis
In the case of `CCN1CCC(COC(=O)[C@](O)(c2ccccc2)c2cccc(OCCCNC(=O)c3cc(OC)c(CNC[C@H](O)c4ccc(O)c5[nH]c(=O)ccc45)cc3F)c2)CC1.O=C(O)C(F)(F)F.O=C(O)C(F)(F)F`, the half-life at 1 h, 1 µM is reported as 4.67 h.

System: not listed separately
Test: in vitro
Settings: human, plasma
Description: Stability in human plasma assessed as half-life at 5 uM incubated for 120 mins by LC-MS/MS analysis
For `CCN1CCC(COC(=O)[C@](O)(c2ccccc2)c2cccc(OCCCNC(=O)c3cc(OC)c(CNC[C@H](O)c4ccc(O)c5[nH]c(=O)ccc45)cc3F)c2)CC1.O=C(O)C(F)(F)F.O=C(O)C(F)(F)F`, the half-life at 2 h, 5 µM was > 2.5 h.

System: Trachea
Test: Inhibition of carbachol-induced smooth muscle contraction in male albino Dunkin-Hartley guinea pig trachea
Settings: Cavia porcellus, read-out: pIC50 (converted)
Compound `CCN1CCC(COC(=O)[C@](O)(c2ccccc2)c2cccc(OCCCNC(=O)c3cc(OC)c(CNC[C@H](O)c4ccc(O)c5[nH]c(=O)ccc45)cc3F)c2)CC1.O=C(O)C(F)(F)F.O=C(O)C(F)(F)F` has an IC50 of 501 pM.

System: Cavia porcellus
Test: Inhibition of histamine induced bronchoconstriction in male albino Dunkin-Hartley guinea pig model at 0.3 nmol/kg, IT(Intratracheal) preadministered with compound followed by histamine addition at 5 to 30 mins and measured 16 hrs post compound treatment relative to control
Settings: read-out: INH
Work on `CCN1CCC(COC(=O)[C@](O)(c2ccccc2)c2cccc(OCCCNC(=O)c3cc(OC)c(CNC[C@H](O)c4ccc(O)c5[nH]c(=O)ccc45)cc3F)c2)CC1.O=C(O)C(F)(F)F.O=C(O)C(F)(F)F` yielded an inhibition in vivo at 0.0003 µmol/kg of 60%.

System: Cavia porcellus
Test: Inhibition of histamine induced bronchoconstriction in male albino Dunkin-Hartley guinea pig model at 1 nmol/kg, IT(Intratracheal) preadministered with compound followed by histamine addition at 5 to 30 mins and measured 1 hrs post compound treatment relative to control
Settings: read-out: INH
`Cn1nc(C(=O)OCCCCNC[C@H](O)c2ccc(O)c3[nH]c(=O)ccc23)cc1COc1cccc([C@@H](NC(=O)O[C@H]2CN3CCC2CC3)c2ccccc2)c1` gave an inhibition in vivo at 0.001 µmol/kg of 73%.

System: not listed separately
Test: in vitro
Settings: rat, lung S9 fraction
Description: Stability in rat lung S9 fraction assessed as half-life at 1 uM incubated for 60 mins by LC-MS/MS analysis
For `CCN1CCC(COC(=O)[C@](O)(c2ccccc2)c2cccc(OCCCNC(=O)c3cc(OC)c(CNC[C@H](O)c4ccc(O)c5[nH]c(=O)ccc45)cc3F)c2)CC1.O=C(O)C(F)(F)F.O=C(O)C(F)(F)F`, the half-life at 1 h, 1 µM was 4.67 h.

System: not listed separately
Test: in vitro
Settings: rat, plasma
Description: Stability in rat plasma assessed as half-life at 5 uM incubated for 120 mins by LC-MS/MS analysis
`CCN1CCC(COC(=O)[C@](O)(c2ccccc2)c2cccc(OCCCNC(=O)c3cc(OC)c(CNC[C@H](O)c4ccc(O)c5[nH]c(=O)ccc45)cc3F)c2)CC1.O=C(O)C(F)(F)F.O=C(O)C(F)(F)F` showed a half-life at 2 h, 5 µM of 0.933 h.

System: not listed separately
Test: in vitro
Settings: human, hepatocytes
Description: Metabolic stability in human hepatocytes assessed as clearance measured per 10^6 cells at 1 uM incubated for 90 mins by LC-MS/MS analysis
Compound `CCN1CCC(COC(=O)[C@](O)(c2ccccc2)c2cccc(OCCCNC(=O)c3cc(OC)c(CNC[C@H](O)c4ccc(O)c5[nH]c(=O)ccc45)cc3F)c2)CC1.O=C(O)C(F)(F)F.O=C(O)C(F)(F)F` has a hepatocyte CLint at 1.5 h, 1 µM of 2 µL/min/1e6 cells.

System: Cavia porcellus
Test: Inhibition of acetylcholine induced bronchoconstriction in male albino Dunkin-Hartley guinea pig model at 0.3 nmol/kg, IT(Intratracheal) preadministered with compound followed by acetylcholine addition at 5 to 30 mins and measured 16 hrs post compound treatment relative to control
Settings: read-out: INH
In the case of `CCN1CCC(COC(=O)[C@](O)(c2ccccc2)c2cccc(OCCCNC(=O)c3cc(OC)c(CNC[C@H](O)c4ccc(O)c5[nH]c(=O)ccc45)cc3F)c2)CC1.O=C(O)C(F)(F)F.O=C(O)C(F)(F)F`, the inhibition in vivo at 0.0003 µmol/kg is reported as 62%.

Molecular target: Beta-2 adrenergic receptor (Cavia porcellus, UniProt Q8K4Z4)
Sequence (Q8K4Z4 whole entry): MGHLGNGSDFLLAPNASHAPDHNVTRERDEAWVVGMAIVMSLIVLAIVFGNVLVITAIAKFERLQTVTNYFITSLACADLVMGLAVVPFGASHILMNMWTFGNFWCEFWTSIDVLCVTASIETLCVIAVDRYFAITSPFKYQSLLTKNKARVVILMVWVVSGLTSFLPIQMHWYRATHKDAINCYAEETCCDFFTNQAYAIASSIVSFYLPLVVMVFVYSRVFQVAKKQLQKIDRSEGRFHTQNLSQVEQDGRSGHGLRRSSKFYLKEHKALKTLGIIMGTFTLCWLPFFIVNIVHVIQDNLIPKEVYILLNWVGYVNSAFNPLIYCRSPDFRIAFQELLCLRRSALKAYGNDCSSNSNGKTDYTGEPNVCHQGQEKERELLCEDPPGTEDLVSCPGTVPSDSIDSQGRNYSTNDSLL
Test: Agonist activity at beta2 adrenoceptor in male albino Dunkin-Hartley guinea pig trachea assessed as inhibition of histamine induced smooth muscle contraction
Settings: not given
Work on `CCN1CCC(COC(=O)[C@](O)(c2ccccc2)c2cccc(OCCCNC(=O)c3cc(OC)c(CNC[C@H](O)c4ccc(O)c5[nH]c(=O)ccc45)cc3F)c2)CC1.O=C(O)C(F)(F)F.O=C(O)C(F)(F)F` yielded an IC50 of 3160 pM.

Species: Cavia porcellus
Test: animal or person
Settings: albino Dunkin-Hartley, 24 h, read-out: INH
Description: Inhibition of acetylcholine induced bronchoconstriction in male albino Dunkin-Hartley guinea pig model at 1 nmol/kg, IT(Intratracheal) preadministered with compound followed by acetylcholine addition at 5 to 30 mins in presence of ICI-118551 and measured 24 hrs post compound treatment relative to control
`Cn1nc(C(=O)OCCCCNC[C@H](O)c2ccc(O)c3[nH]c(=O)ccc23)cc1COc1cccc([C@@H](NC(=O)O[C@H]2CN3CCC2CC3)c2ccccc2)c1` showed an inhibition in vivo at 0.001 µmol/kg of 45%.

Species: Cavia porcellus
Test: animal or person
Settings: albino Dunkin-Hartley, 16 h, read-out: INH
Description: Inhibition of acetylcholine induced bronchoconstriction in male albino Dunkin-Hartley guinea pig model at 0.3 nmol/kg, IT(Intratracheal) preadministered with compound followed by acetylcholine addition at 5 to 30 mins in presence of ICI-118551 and measured 16 hrs post compound treatment relative to control
Work on `CCN1CCC(COC(=O)[C@](O)(c2ccccc2)c2cccc(OCCCNC(=O)c3cc(OC)c(CNC[C@H](O)c4ccc(O)c5[nH]c(=O)ccc45)cc3F)c2)CC1.O=C(O)C(F)(F)F.O=C(O)C(F)(F)F` yielded an inhibition in vivo at 0.0003 µmol/kg of 51%.

System: not listed separately
Test: in vitro
Settings: rat, hepatocytes
Description: Metabolic stability in rat hepatocytes assessed as clearance measured per 10^6 cells at 1 uM incubated for 90 mins by LC-MS/MS analysis
In the case of `CCN1CCC(COC(=O)[C@](O)(c2ccccc2)c2cccc(OCCCNC(=O)c3cc(OC)c(CNC[C@H](O)c4ccc(O)c5[nH]c(=O)ccc45)cc3F)c2)CC1.O=C(O)C(F)(F)F.O=C(O)C(F)(F)F`, the hepatocyte CLint at 1.5 h, 1 µM is reported as 27 µL/min/1e6 cells.

Molecular target: Muscarinic acetylcholine receptor M3 (Cavia porcellus, UniProt Q8VH26)
Sequence (Q8VH26 whole entry): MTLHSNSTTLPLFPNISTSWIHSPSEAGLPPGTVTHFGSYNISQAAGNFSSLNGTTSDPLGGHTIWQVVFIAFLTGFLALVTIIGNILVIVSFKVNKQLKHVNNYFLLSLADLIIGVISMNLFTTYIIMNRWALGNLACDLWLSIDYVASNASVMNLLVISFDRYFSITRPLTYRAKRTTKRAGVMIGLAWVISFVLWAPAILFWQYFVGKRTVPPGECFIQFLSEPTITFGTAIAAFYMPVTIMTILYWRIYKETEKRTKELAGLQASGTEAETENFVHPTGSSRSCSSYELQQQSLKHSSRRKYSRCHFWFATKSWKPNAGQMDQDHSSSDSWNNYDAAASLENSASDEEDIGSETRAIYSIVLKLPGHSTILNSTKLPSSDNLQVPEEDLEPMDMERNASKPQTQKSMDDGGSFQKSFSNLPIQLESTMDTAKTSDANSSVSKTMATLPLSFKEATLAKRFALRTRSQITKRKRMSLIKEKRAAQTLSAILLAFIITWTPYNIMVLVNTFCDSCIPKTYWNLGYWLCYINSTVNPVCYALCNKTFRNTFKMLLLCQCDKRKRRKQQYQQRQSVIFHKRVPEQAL
Test: Antagonist activity at M3 receptor in male albino Dunkin-Hartley guinea pig trachea assessed as inhibition of carbachol-induced smooth muscle contraction in presence of propranolol
Settings: not given
For `CCN1CCC(COC(=O)[C@](O)(c2ccccc2)c2cccc(OCCCNC(=O)c3cc(OC)c(CNC[C@H](O)c4ccc(O)c5[nH]c(=O)ccc45)cc3F)c2)CC1.O=C(O)C(F)(F)F.O=C(O)C(F)(F)F`, the IC50 was 3160 pM.

Species: Cavia porcellus
Test: animal or person
Settings: albino Dunkin-Hartley, 1 h, read-out: INH
Description: Inhibition of acetylcholine induced bronchoconstriction in male albino Dunkin-Hartley guinea pig model at 1 nmol/kg, IT(Intratracheal) preadministered with compound followed by acetylcholine addition at 5 to 30 mins in presence of ICI-118551 and measured 1 hrs post compound treatment relative to control
Compound `Cn1nc(C(=O)OCCCCNC[C@H](O)c2ccc(O)c3[nH]c(=O)ccc23)cc1COc1cccc([C@@H](NC(=O)O[C@H]2CN3CCC2CC3)c2ccccc2)c1` has an inhibition in vivo at 0.001 µmol/kg of 84%.

Molecular target: Beta-2 adrenergic receptor (Homo sapiens, UniProt P07550)
Sequence (P07550 whole entry): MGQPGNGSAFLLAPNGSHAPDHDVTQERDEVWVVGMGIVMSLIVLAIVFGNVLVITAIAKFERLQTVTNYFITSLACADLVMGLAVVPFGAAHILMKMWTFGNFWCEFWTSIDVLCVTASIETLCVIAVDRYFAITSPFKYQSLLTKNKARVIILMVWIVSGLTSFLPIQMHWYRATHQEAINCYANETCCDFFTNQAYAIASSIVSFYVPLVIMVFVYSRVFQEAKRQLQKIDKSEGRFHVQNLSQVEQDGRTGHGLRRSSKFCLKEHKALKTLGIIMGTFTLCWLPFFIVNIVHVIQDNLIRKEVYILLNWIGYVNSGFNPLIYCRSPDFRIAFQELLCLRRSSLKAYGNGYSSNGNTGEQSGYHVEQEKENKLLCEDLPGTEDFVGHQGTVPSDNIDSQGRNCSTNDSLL
Test: not given
Settings: not given
Work on `CCN1CCC(COC(=O)[C@](O)(c2ccccc2)c2cccc(OCCCNC(=O)c3cc(OC)c(CNC[C@H](O)c4ccc(O)c5[nH]c(=O)ccc45)cc3F)c2)CC1.O=C(O)C(F)(F)F.O=C(O)C(F)(F)F` yielded a Ki of 501 pM.

System: not listed separately
Test: in vitro
Settings: human, lung S9 fraction
Description: Stability in human lung S9 fraction assessed as half-life at 1 uM incubated for 60 mins by LC-MS/MS analysis
`CCN1CCC(COC(=O)[C@](O)(c2ccccc2)c2cccc(OCCCNC(=O)c3cc(OC)c(CNC[C@H](O)c4ccc(O)c5[nH]c(=O)ccc45)cc3F)c2)CC1.O=C(O)C(F)(F)F.O=C(O)C(F)(F)F` gave a half-life at 1 h, 1 µM of 4.67 h.

System: not listed separately
Test: in vitro
Settings: guinea pig, hepatocytes
Description: Metabolic stability in guinea pig hepatocytes assessed as clearance measured per 10^6 cells at 1 uM incubated for 90 mins by LC-MS/MS analysis
In the case of `CCN1CCC(COC(=O)[C@](O)(c2ccccc2)c2cccc(OCCCNC(=O)c3cc(OC)c(CNC[C@H](O)c4ccc(O)c5[nH]c(=O)ccc45)cc3F)c2)CC1.O=C(O)C(F)(F)F.O=C(O)C(F)(F)F`, the hepatocyte CLint at 1.5 h, 1 µM is reported as 60 µL/min/1e6 cells.

System: not listed separately
Test: Stability in guinea pig lung S9 fraction at 1 uM incubated for 60 mins by LC-MS/MS analysis
Settings: not given
In the case of `Cn1nc(C(=O)OCCCCNC[C@H](O)c2ccc(O)c3[nH]c(=O)ccc23)cc1COc1cccc([C@@H](NC(=O)O[C@H]2CN3CCC2CC3)c2ccccc2)c1`, the remaining at 1 h, 1 µM is reported as 98.5%. `CCN1CCC(COC(=O)[C@](O)(c2ccccc2)c2cccc(OCCCNC(=O)c3cc(OC)c(CNC[C@H](O)c4ccc(O)c5[nH]c(=O)ccc45)cc3F)c2)CC1.O=C(O)C(F)(F)F.O=C(O)C(F)(F)F` gave a remaining at 1 h, 1 µM of 96.5%.

System: Cavia porcellus
Test: Inhibition of histamine induced bronchoconstriction in male albino Dunkin-Hartley guinea pig model at 1 nmol/kg, IT(Intratracheal) preadministered with compound followed by histamine addition at 5 to 30 mins and measured 24 hrs post compound treatment relative to control
Settings: read-out: INH
Work on `Cn1nc(C(=O)OCCCCNC[C@H](O)c2ccc(O)c3[nH]c(=O)ccc23)cc1COc1cccc([C@@H](NC(=O)O[C@H]2CN3CCC2CC3)c2ccccc2)c1` yielded an inhibition in vivo at 0.001 µmol/kg of 51%.

System: Cavia porcellus
Test: Inhibition of acetylcholine induced bronchoconstriction in male albino Dunkin-Hartley guinea pig model at 0.3 nmol/kg, IT(Intratracheal) preadministered with compound followed by acetylcholine addition at 5 to 30 mins and measured 1 hrs post compound treatment relative to control
Settings: read-out: INH
Compound `CCN1CCC(COC(=O)[C@](O)(c2ccccc2)c2cccc(OCCCNC(=O)c3cc(OC)c(CNC[C@H](O)c4ccc(O)c5[nH]c(=O)ccc45)cc3F)c2)CC1.O=C(O)C(F)(F)F.O=C(O)C(F)(F)F` has an inhibition in vivo at 0.0003 µmol/kg of 78%.

System: not listed separately
Test: in vitro
Settings: guinea pig, plasma
Description: Stability in guinea pig plasma assessed as half-life at 5 uM incubated for 120 mins by LC-MS/MS analysis
In the case of `CCN1CCC(COC(=O)[C@](O)(c2ccccc2)c2cccc(OCCCNC(=O)c3cc(OC)c(CNC[C@H](O)c4ccc(O)c5[nH]c(=O)ccc45)cc3F)c2)CC1.O=C(O)C(F)(F)F.O=C(O)C(F)(F)F`, the half-life at 2 h, 5 µM is reported as > 2.5 h.

Species: Cavia porcellus
Test: animal or person
Settings: albino Dunkin-Hartley, 1 h, read-out: INH
Remark: another data set of the same source
Description: Inhibition of acetylcholine induced bronchoconstriction in male albino Dunkin-Hartley guinea pig model at 0.3 nmol/kg, IT(Intratracheal) preadministered with compound followed by acetylcholine addition at 5 to 30 mins in presence of ICI-118551 and measured 1 hrs post compound treatment relative to control
With `CCN1CCC(COC(=O)[C@](O)(c2ccccc2)c2cccc(OCCCNC(=O)c3cc(OC)c(CNC[C@H](O)c4ccc(O)c5[nH]c(=O)ccc45)cc3F)c2)CC1.O=C(O)C(F)(F)F.O=C(O)C(F)(F)F` the inhibition in vivo at 0.0003 µmol/kg was 61%.
